# From patent publication US4559323A, “A41030 Antibiotics” (Eli Lilly and Company, priority 1984, dated 1985)
# Where two headings read alike, the source gives them in different places.
# Legend:
# Eubacterium aerofaciens = test: Agar-dilution MIC (anaerobes); type: cell-based; conditions: Table 14; Eubacterium aerofaciens 1235
# [1] = tested on: Streptococcus sp. (Group D); test: Agar-dilution MIC; type: cell-based; conditions: Table 17, 24 hours
# Description: (§1) The agar-dilution procedure described by the International Collaborative study (ICS) group was used to determine the minimum inhibitory concentrations (MIC's).
# [2] = tested on: Staphylococcus epidermidis; test: Agar-dilution MIC; type: cell-based; conditions: Table 17; 24 hours; Staphylococcus epidermidis EPI1
# Description: as §1
# Streptococcus pyogenes = test: Agar-dilution MIC; type: cell-based; conditions: Table 17; 24 hours; Streptococcus pyogenes C203
# Description: as §1
# Streptococcus pneumoniae = test: Agar-dilution MIC; type: cell-based; conditions: Table 17; 24 hours; Streptococcus pneumoniae Park I
# Description: as §1
# Fusobacterium symbiosum = test: Agar-dilution MIC (anaerobes); type: cell-based; conditions: Table 14; Fusobacterium symbiosum 1470
# Hemophilus influenzae = test: Agar-dilution MIC; type: cell-based; conditions: Table 17, 24 hours
# Propionibacterium acnes = test: Agar-dilution MIC (anaerobes); type: cell-based; conditions: Table 14; Propionibacterium acnes 79
# Description: Antibiotic A41030 factors A, B and C have also been tested and found to be active against a genus of anaerobic bacteria identified as Propionibacterium acnes.
# [3] = tested on: Bacteroides melaninogenicus; test: Agar-dilution MIC (anaerobes); type: cell-based; conditions: Table 14; Bacteroides melaninogenicus 2736
# Staphylococcus aureus = test: Agar-dilution MIC; type: cell-based; conditions: Table 17, 24 hours
# [4] = tested on: Peptostreptococcus anaerobius; test: Agar-dilution MIC (anaerobes); type: cell-based; conditions: Table 14; Peptostreptococcus anaerobius 1428
# Clostridium difficile [5] = type: cell-based
# Description: The A41030 antibiotic factors A, B, C, D, E, F, and G, are also active against a number of strains of Clostridium difficile, as determined by the agar-dilution method.
# [6] = tested on: Fusobacterium necrophorum; test: Agar-dilution MIC (anaerobes); type: cell-based; conditions: Table 14; Fusobacterium necrophorum 6054A
# [7] = Electrometric titration (pKa); type: physicochemical; conditions: electrometric titration in 66% dimethylformamide in water
# Bacteroides vulgatis = test: Agar-dilution MIC (anaerobes); type: cell-based; conditions: Table 14; Bacteroides vulgatis 1211
# Peptococcus prevoti = test: Agar-dilution MIC (anaerobes); type: cell-based; conditions: Table 14; Peptococcus prevoti 1281
# Solubility in solvents = type: physicochemical; conditions: solvents as named
# Description: The seven antibiotic factors are recovered from the fermentation and are obtained as a mixture, the A41030 complex. It will be recognized that the ratio of the factors in the A41030 complex will vary, depending upon the fermentation conditions used. The individual factors […], and G are separated and isolated as individual compounds, as hereinafter described.
# Bacteroides corrodens = test: Agar-dilution MIC (anaerobes); type: cell-based; conditions: Table 14; Bacteroides corrodens 1874
# [8] = tested on: Peptococcus asaccharolyticus; test: Agar-dilution MIC (anaerobes); type: cell-based; conditions: Table 14; Peptococcus asaccharolyticus 1302
# Salmonella typhi = test: Agar-dilution MIC; type: cell-based; conditions: Table 17, 24 hours
# Clostridium perfringens = type: cell-based; conditions: Table 14; Clostridium perfringens 81
# B. thetaiotaomicron = type: cell-based; conditions: Table 14; Bacteroides thetalotaomicron 1438
# Description: as §1
# S. pneumoniae = test: Experimental bacterial infection in mice, subcutaneous ED50; type: in vivo; conditions: two doses subcutaneously
# Method: (§2) All of the A41030 factors tested have shown in vivo antimicrobial activity against experimental bacterial infections. When two doses of test compound were administered subcutaneously to mice in illustrative infections, the activity observed is measured as an ED50 value [effective dose in mg./kg. to protect fifty percent of the test animals: See Warren Wick, et al., J. Bacteriol. 81, 233-235 (1961)].
# S. pyogenes = test: as above; type: in vivo; conditions: two doses subcutaneously
# Method: as §2
# Staph. aureus = test: as above; type: in vivo; conditions: two doses subcutaneously
# Method: as §2
# Clostridium septicum = test: Agar-dilution MIC (anaerobes); type: cell-based; conditions: Table 14; Clostridium septicum 1128
# [9] = tested on: Peptostreptococcus intermedius; test: Agar-dilution MIC (anaerobes); type: cell-based; conditions: Table 14; Peptostreptococcus intermedius 1264
# Bacteroides fragilis = test: Agar-dilution MIC (anaerobes); type: cell-based; conditions: Table 14
# Description: as §1
# Clostridium difficile [10] = type: cell-based; conditions: Table 14; Clostridium difficile 2994
# [11] = Table 16, C. difficile WAL-2112
# [12] = Table 16, C. difficile WAL-3657
# [13] = Table 16, C. difficile WAL-4268
substance,measurement,setting,value
A41030 factor E,MIC,Eubacterium aerofaciens,0.5 µg/mL
same,MIC,[1]; Streptococcus sp. Group D 9960,1 µg/mL
same,MIC,[1]; Streptococcus sp. Group D X66,1 µg/mL
same,MIC,[2],0.25 µg/mL
same,MIC,Streptococcus pyogenes,0.25 µg/mL
same,MIC,Streptococcus pneumoniae,0.25 µg/mL
same,MIC,Fusobacterium symbiosum,1.0 µg/mL
same,MIC,Hemophilus influenzae; Haemophilus influenzae 76,8 µg/mL
same,MIC,Hemophilus influenzae; Haemophilus influenzae C.L.,8 µg/mL
same,MIC,Propionibacterium acnes,0.5 µg/mL
same,MIC,[3],32 µg/mL
same,MIC,Staphylococcus aureus; Staphylococcus aureus 3055,0.125 µg/mL
same,MIC,Staphylococcus aureus; Staphylococcus aureus S13E,0.25 µg/mL
same,MIC,Staphylococcus aureus; Staphylococcus aureus V41,0.25 µg/mL
same,MIC,Staphylococcus aureus; Staphylococcus aureus X400,0.25 µg/mL
same,MIC,[4],32 µg/mL
same,MIC,"Clostridium difficile [5]; Table 16, C. difficile 78",0.5 µg/mL
same,MIC,"Clostridium difficile [5]; Table 16, C. difficile 107B",0.5 µg/mL
same,MIC,"Clostridium difficile [5]; Table 16, C. difficile 111F",0.5 µg/mL
same,MIC,"Clostridium difficile [5]; Table 16, C. difficile 1153",1.0 µg/mL
same,MIC,"Clostridium difficile [5]; Table 16, C. difficile 2634",1.0 µg/mL
same,MIC,"Clostridium difficile [5]; Table 16, C. difficile 3424-5B",0.5 µg/mL
same,MIC,"Clostridium difficile [5]; Table 16, C. difficile 3816",0.5 µg/mL
same,MIC,"Clostridium difficile [5]; Table 16, C. difficile 3950",0.5 µg/mL
same,MIC,"Clostridium difficile [5]; Table 16, C. difficile 6890",0.5 µg/mL
same,MIC,"Clostridium difficile [5]; Table 16, C. difficile 8484",0.5 µg/mL
same,MIC,"Clostridium difficile [5]; Table 16, C. difficile A-194",0.5 µg/mL
same,MIC,"Clostridium difficile [5]; Table 16, C. difficile A-195",0.5 µg/mL
same,MIC,"Clostridium difficile [5]; Table 16, C. difficile A-196",1.0 µg/mL
same,MIC,"Clostridium difficile [5]; Table 16, C. difficile A-279",0.5 µg/mL
same,MIC,"Clostridium difficile [5]; Table 16, C. difficile A-280",0.5 µg/mL
same,MIC,"Clostridium difficile [5]; Table 16, C. difficile A-281",1.0 µg/mL
same,MIC,Clostridium difficile [5]; [11],0.5 µg/mL
same,MIC,Clostridium difficile [5]; [12],0.5 µg/mL
same,MIC,Clostridium difficile [5]; [13],0.5 µg/mL
same,MIC,[6],0.5 µg/mL
same,"pKa, first titratable group",[7],about 5.8
same,"pKa, second titratable group",[7],~7.7
same,MIC,Bacteroides vulgatis,32 µg/mL
same,MIC,Peptococcus prevoti,32 µg/mL
same,Solubility,Solubility in solvents,soluble in the same solvents as factor A
same,MIC,Bacteroides corrodens,64 µg/mL
same,MIC,[8],≤ 0.25 µg/mL
same,MIC,Salmonella typhi; Salmonella typhi 1335,> 128 µg/mL
same,MIC,Salmonella typhi; Salmonella typhi X514,> 128 µg/mL
same,MIC,Clostridium perfringens,1.0 µg/mL
same,MIC,B. thetaiotaomicron,64 µg/mL
same,ED50,S. pneumoniae,3.11 mg/kg
same,ED50,S. pyogenes,3.54 mg/kg
same,ED50,Staph. aureus,< 0.31 mg/kg
same,MIC,Clostridium septicum,0.5 µg/mL
same,MIC,[9],32 µg/mL
same,MIC,Bacteroides fragilis; Bacteroides fragilis 111,64 µg/mL
same,MIC,Bacteroides fragilis; Bacteroides fragilis 1877,32 µg/mL
same,MIC,Bacteroides fragilis; Bacteroides fragilis 1936B,64 µg/mL
same,MIC,Clostridium difficile [10],0.5 µg/mL
A41030 factor F,MIC,Eubacterium aerofaciens,1.0 µg/mL
same,MIC,[1]; Streptococcus sp. Group D 9960,4 µg/mL
same,MIC,[1]; Streptococcus sp. Group D X66,4 µg/mL
same,MIC,[2],0.25 µg/mL
same,MIC,Streptococcus pyogenes,2 µg/mL
same,MIC,Streptococcus pneumoniae,2 µg/mL
same,MIC,Fusobacterium symbiosum,1.0 µg/mL
same,MIC,Hemophilus influenzae; Haemophilus influenzae 76,32 µg/mL
same,MIC,Hemophilus influenzae; Haemophilus influenzae C.L.,32 µg/mL
same,MIC,Propionibacterium acnes,1.0 µg/mL
same,MIC,[3],1.0 µg/mL
same,MIC,Staphylococcus aureus; Staphylococcus aureus 3055,0.5 µg/mL
same,MIC,Staphylococcus aureus; Staphylococcus aureus S13E,1 µg/mL
same,MIC,Staphylococcus aureus; Staphylococcus aureus V41,0.5 µg/mL
same,MIC,Staphylococcus aureus; Staphylococcus aureus X400,1 µg/mL
same,MIC,[4],32 µg/mL
same,MIC,Clostridium difficile [5],1 µg/mL
same,MIC,"Clostridium difficile [5]; Table 16, C. difficile 78",1.0 µg/mL
same,MIC,"Clostridium difficile [5]; Table 16, C. difficile 107B",1.0 µg/mL
same,MIC,"Clostridium difficile [5]; Table 16, C. difficile 111F",2 µg/mL
same,MIC,"Clostridium difficile [5]; Table 16, C. difficile 1153",2 µg/mL
same,MIC,"Clostridium difficile [5]; Table 16, C. difficile 2634",2 µg/mL
same,MIC,"Clostridium difficile [5]; Table 16, C. difficile 3424-5B",1.0 µg/mL
same,MIC,"Clostridium difficile [5]; Table 16, C. difficile 3816",1.0 µg/mL
same,MIC,"Clostridium difficile [5]; Table 16, C. difficile 3950",1.0 µg/mL
same,MIC,"Clostridium difficile [5]; Table 16, C. difficile 6890",1.0 µg/mL
same,MIC,"Clostridium difficile [5]; Table 16, C. difficile 8484",1.0 µg/mL
same,MIC,"Clostridium difficile [5]; Table 16, C. difficile A-194",1.0 µg/mL
same,MIC,"Clostridium difficile [5]; Table 16, C. difficile A-195",1.0 µg/mL
same,MIC,"Clostridium difficile [5]; Table 16, C. difficile A-196",2 µg/mL
same,MIC,"Clostridium difficile [5]; Table 16, C. difficile A-279",1.0 µg/mL
same,MIC,"Clostridium difficile [5]; Table 16, C. difficile A-280",1.0 µg/mL
same,MIC,"Clostridium difficile [5]; Table 16, C. difficile A-281",2 µg/mL
same,MIC,Clostridium difficile [5]; [11],1.0 µg/mL
same,MIC,Clostridium difficile [5]; [12],1.0 µg/mL
same,MIC,Clostridium difficile [5]; [13],1.0 µg/mL
same,MIC,[6],1.0 µg/mL
same,"pKa, first titratable group",[7],about 5.4
same,"pKa, second titratable group",[7],~7.1
same,MIC,Bacteroides vulgatis,32 µg/mL
same,MIC,Peptococcus prevoti,32 µg/mL
same,Solubility,Solubility in solvents,soluble in the same solvents as factor A
same,MIC,Bacteroides corrodens,32 µg/mL
same,MIC,[8],≤ 0.25 µg/mL
same,MIC,Salmonella typhi; Salmonella typhi 1335,> 128 µg/mL
same,MIC,Salmonella typhi; Salmonella typhi X514,> 128 µg/mL
same,MIC,Clostridium perfringens,1.0 µg/mL
same,MIC,B. thetaiotaomicron,64 µg/mL
same,ED50,S. pneumoniae,> 5.0 mg/kg
same,ED50,S. pyogenes,> 5.0 mg/kg
same,ED50,Staph. aureus,< 0.31 mg/kg
same,MIC,Clostridium septicum,1.0 µg/mL
same,MIC,[9],1.0 µg/mL
same,MIC,Bacteroides fragilis; Bacteroides fragilis 111,32 µg/mL
same,MIC,Bacteroides fragilis; Bacteroides fragilis 1877,32 µg/mL
same,MIC,Bacteroides fragilis; Bacteroides fragilis 1936B,32 µg/mL
